For one assay, the system named is CSPG. The assay is described as follows: CSPG neoepitope (Ab1918) immunolabeling of acellular rat sciatic nerve segments treated en bloc. As to conditions: acellular rat sciatic nerve segments bathed en bloc in chondroitinase ABC solution for 16 hours. From the text: Adult (180-200 g) female SPRAGUE DAWLEY rats (HARLAN, Indianapolis, Ind.) were used as nerve donors and recipient hosts. Donor rats were anesthetized with halothane and decapitated. Sciatic nerves were exposed through a gluteal muscle-splitting incision and isolated free of underlying fascia. A 15-mm nerve segment was excised rostral to the bifurcation into common peroneal and tibial nerves. The segments were rinsed with cold sterile Ringer's solution, stabilized by pinning the ends to a thin plastic support, and transferred to a cryogenic vial. The vials were submerged in liquid nitrogen for 2 minutes and then transferred to a 37° C. water bath for 2 minutes. This freeze/thaw cycle was repeated, yielding acellular nerve grafts that were then stored in liquid nitrogen. On the day before grafting, the nerve grafts were warmed to room temperature and incubated in 100 μl phosphate buffered saline pH 7.4 (PBS) containing 2 units/ml chondroitinase ABC (SIGMA, St. Louis, Mo.) or in PBS (vehicle) only for 16 hours at 37° C. The grafts were rinsed twice with Ringer's and kept on ice prior to use. The chondroitinase ABC preparation was highly purified and stated by the manufacturer to be essentially free of protease activity.
Axonal regeneration was assessed by GAP-43 immunofluorescence and digital image analysis. […]

A further assay concerns chick DRG neurons. Nature of the assay: Cryoculture assay using human nerve segments. In kind it is cell-based. Conditions: 24 h. As to the method: Cryoculture is a neurite outgrowth assay in which neurons are cultured directly on fresh/frozen nerve sections and was performed as described previously (Ferguson T A et al. [2000] Mol Cell Neurosci, 16:157-167). Briefly, chondroitinase- and vehicle-treated nerve segments were sectioned at 20 μm, mounted on sterile, aminopropyltriethoxysilane (APTS)-coated coverslips and stored at −20° C. until used. Where indicated, sections were treated with chondroitinase ABC (0.1 unit/ml) or vehicle (50 mM Tris-HCl, pH 8.0), containing 50 mM NaCl) for 2 h at 37° C. Purified dorsal root ganglionic (DRG) neurons from day 8 chick embryos were seeded directly on the nerve sections in a defined N2 medium (Bottenstein J E et al. [1980] Exp Cell Res 125:183-190) containing 10 ng/ml nerve growth factor. Cryoculture assays were terminated after 24 h of incubation by fixation with 100% methanol. Neuritic growth by DRG neurons was accessed by GAP-43 immunofluorescent labeling. Epifluorescent photomicrographs were acquired as described for tissue sections. Neurite lengths were measured directly using IMAGE-PRO PLUS software (MEDIA CYBERNETICS, Silver Springs, Md.). At least 250 neurons with neurites greater than one cell body (˜15 μm) were scored for each condition in each experiment.
Many of the experiments described in the examples above performed using rat nerves also have been replicated using human nerve. […]

As to chondroitinase ABC, in the assay with CSPG, the “CSPG degradation (Ab1918 neoepitope immunostaining)” value was “thoroughly degraded CSPG side-chains”. Besides, the “growth-promoting properties of human nerves” value in the assay with chick DRG neurons is reported as “increased”.
